Consider 63 compounds from patent US9988373B2, “Nitrogen-containing six-membered cyclic derivatives and pharmaceutical composition comprising the same” (SHIONOGI & CO., LTD., priority 2013, dated 2018).

One experiment concerns the target T1, human P2X7 receptor (Homo sapiens, UniProt Q99572, R270H).
T1 construct: expressed in transfected cells
T1 sequence (Q99572 1-595 R270H): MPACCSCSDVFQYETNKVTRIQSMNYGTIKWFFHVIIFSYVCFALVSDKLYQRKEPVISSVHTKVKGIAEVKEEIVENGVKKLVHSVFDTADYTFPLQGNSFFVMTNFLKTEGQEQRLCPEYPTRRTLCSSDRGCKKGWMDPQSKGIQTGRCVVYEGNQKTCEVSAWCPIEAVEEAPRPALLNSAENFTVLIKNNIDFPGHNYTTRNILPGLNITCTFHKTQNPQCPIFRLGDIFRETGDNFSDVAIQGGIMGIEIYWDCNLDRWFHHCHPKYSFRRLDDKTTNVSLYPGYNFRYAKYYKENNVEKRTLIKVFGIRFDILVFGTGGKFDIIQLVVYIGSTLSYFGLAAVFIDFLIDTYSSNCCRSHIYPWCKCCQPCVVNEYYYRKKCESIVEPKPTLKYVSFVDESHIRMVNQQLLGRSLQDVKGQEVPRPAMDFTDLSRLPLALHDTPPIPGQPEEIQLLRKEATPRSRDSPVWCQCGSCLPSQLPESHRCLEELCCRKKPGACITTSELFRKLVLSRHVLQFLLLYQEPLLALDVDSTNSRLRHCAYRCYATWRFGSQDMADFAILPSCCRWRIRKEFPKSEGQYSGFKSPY
The experiment in a line: Evaluation of a human P2X7 receptor inhibitory activity (Yo-Pro uptake, BzATP stimulation, FLIPR TETRA). In kind it is cell-based. The following applies: antagonistic activity for the human P2X7 receptor, 1321N1 cell transfected with the human P2X7 receptor gene, Yo-Pro fluorescence. The protocol:
Test Example 1 Evaluation of a Human P2X7 Receptor Inhibitory Activity
Stably expressing cell line (1321N1 cell transfected with the human P2X7 receptor gene (GenBank accession number NM_002562.5 including T606C and G952A SNP)) was used. The cells were seeded in a 384-well microtiter plate at a concentration of 8000 cells/well and cultured in the medium (10% fetal bovine serum, 25 mM HEPES, 1% penicillin and streptomycin in DMEM) for one day at 37° C. under 5% carbon dioxide atmosphere. After replacing with 20 μL of the HBSS buffer (20 mM HEPES. 55.6 mM D-glucose, 1×HBSS(−), pH 7.4-7.5), 15 μL of 17.3 μM Yo-Pro solution in the HBSS buffer was added. The plate was placed in high-throughput cellular screening system FLIPR TETRA (Molecullar Devices, LLC.) and 15 μL of 130 μM BzATP solution in the HBSS buffer was added. Measurement of fluorescence intensity by FLIPR TETRA was started. After eight minutes, 15 μL of DMSO solutions containing different concentrations of the compound of the present invention as prepared by dilution with the HBSS buffer were dispensed to each well through the built-in automatic dispenser, and the measurement of fluorescence intensity was continued for 20 minutes. The maximum fluorescence intensity without the compound of the present invention is calculated as 0% inhibition and the maximum fluorescence intensity when the reference compound was added is calculated as 100% inhibition. Changing values of fluorescence intensity by the compound of the present invention were calculated by difference between maximum and minimum fluorescence intensity for 20 minutes. Inhibition ratios (%) were calculated from the following equation:
[formula] IC50 was calculated using logistic approximation.
The IC50 is the midpoint of a concentration-inhibition curve. As to `COc1cn(Cc2ccccc2)c(-c2cccc(C(F)(F)F)c2Cl)nc1=O` [II-008], it took 41 nM to reach half-maximal inhibition (IC50).
Same read-out and setting: as for `Cc1cn(Cc2ccccc2)c(-c2cccc(C(F)(F)F)c2Cl)nc1=O` [II-030], the figure is 210 nM; as for `O=c1nc(-c2cccc(C(F)(F)F)c2Cl)n(Cc2ccccc2)cc1F` [II-031], 58 nM; as for `COc1cn(CC#N)c(-c2cccc(C(F)(F)F)c2Cl)nc1=O` [II-032], 1000 nM.
On to `O=c1nc(-c2cccc(C(F)(F)F)c2Cl)n(Cc2ccccc2)cc1OCC(F)(F)F` [II-033], for which half-maximal inhibition (IC50) required 60 nM.
Same read-out and setting: as for `Nc1cn(Cc2ccccc2)c(-c2cccc(C(F)(F)F)c2Cl)nc1=O` [II-045], the figure is 270 nM; as for `CC(=O)Nc1cn(Cc2ccccc2)c(-c2cccc(C(F)(F)F)c2Cl)nc1=O` [II-046], 180 nM.

Staying with this experiment, now noted: antagonistic activity for the human P2X7 receptor, 1321N1 cell transfected with the human P2X7 receptor gene, Yo-Pro fluorescence, class symbols.
In turn, `O=c1ccn(Cc2ccccc2Cl)c(-c2cccc(C(F)(F)F)c2Cl)c1` [Compound I-059] registered a concentration for half-maximal inhibition (IC50) of 100 to 500 nM.
The same measure, in the same setting: under `CS(=O)(=O)c1ccc(Cn2ccc(=O)cc2-c2cccc(C(F)(F)F)c2Cl)cc1` [Compound I-060] stands 1000 to 10000 nM; under `O=c1ccn(Cc2cccc(-c3ccccc3)c2)c(-c2cccc(C(F)(F)F)c2Cl)c1` [Compound I-061], 1000 to 10000 nM; under `O=c1ccn(Cc2cccc(F)c2F)c(-c2cccc(C(F)(F)F)c2Cl)c1` [Compound I-062], 500 to 1000 nM.
Still for that read-out and setting: under `NC(=O)c1ccc(Cn2ccc(=O)cc2-c2cccc(C(F)(F)F)c2Cl)cc1` [Compound I-063] stands 1000 to 10000 nM; under `O=c1ccn(Cc2ccc(OCc3ccccc3)cc2)c(-c2cccc(C(F)(F)F)c2Cl)c1` [Compound I-064], 1000 to 10000 nM.
On the same count and under the same terms, under `O=c1ccn(Cc2ccon2)c(-c2cccc(C(F)(F)F)c2Cl)c1` [Compound I-065] stands 1000 to 10000 nM.
In the case of `O=c1ccn(Cc2nc(C(F)(F)F)cs2)c(-c2cccc(C(F)(F)F)c2Cl)c1` [Compound I-066], the 50% inhibitory concentration (IC50) was in the range of 1000 to 10000 nM.
In turn, `O=c1ccn(Cc2ccc(C(F)(F)F)o2)c(-c2cccc(C(F)(F)F)c2Cl)c1` [Compound I-067] gave an IC50 of 500 to 1000 nM.
Same read-out and setting: under `Cc1cc(Cn2ccc(=O)cc2-c2cccc(C(F)(F)F)c2Cl)on1` [Compound I-068] stands 1000 to 10000 nM; under `O=C(c1ccccc1)c1cccc(Cn2ccc(=O)cc2-c2cccc(C(F)(F)F)c2Cl)c1` [Compound I-069], 500 to 1000 nM; under `O=c1ccn(Cc2ccc(Oc3ccccc3)cc2)c(-c2cccc(C(F)(F)F)c2Cl)c1` [Compound I-070], 1000 to 10000 nM.
On the same count and under the same terms, under `COc1ccccc1Cn1ccc(=O)cc1-c1cccc(C(F)(F)F)c1Cl` [Compound I-071] stands 100 to 500 nM; under `CCOc1cn(Cc2ccccc2)c(-c2cccc(C(F)(F)F)c2Cl)cc1=O` [Compound I-072], less than 50 nM.
The compound `N#CCOc1cn(Cc2ccccc2)c(-c2cccc(C(F)(F)F)c2Cl)cc1=O` [Compound I-073] came in with an IC50 of less than 50 nM.
For the compound `COc1cn(Cc2ccccc2C)c(-c2cccc(C(F)(F)F)c2Cl)nc1=O` [II-001], the concentration for half-maximal inhibition (IC50) is less than 50 nM.
On the same count and under the same terms, as for `COc1cn(Cc2ccccc2C)c(-c2cccc3ncccc23)nc1=O` [II-002], the figure is 1000 to 10000 nM; as for `Cc1ccccc1Cn1cc(Br)c(=O)nc1-c1cccc(C(F)(F)F)c1Cl` [II-003], less than 50 nM; as for `COc1cn(Cc2ccc(F)cc2)c(-c2cccc(C(F)(F)F)c2Cl)nc1=O` [II-004], 100 to 500 nM.
Still for that read-out and setting: as for `COc1cn(Cc2ccccc2F)c(-c2cccc(C(F)(F)F)c2Cl)nc1=O` [II-005], the figure is 50 to 100 nM; as for `COc1cn(Cc2cccc(F)c2)c(-c2cccc(C(F)(F)F)c2Cl)nc1=O` [II-006], 50 to 100 nM.
Same read-out and setting: as for `COc1cn(Cc2ccc(F)cc2C)c(-c2cccc(C(F)(F)F)c2Cl)nc1=O` [II-007], the figure is 50 to 100 nM; as for `COc1cn(Cc2cccnc2)c(-c2cccc(C(F)(F)F)c2Cl)nc1=O` [II-009], 100 to 500 nM; as for `Cc1ccccc1Cn1cc(C)c(=O)nc1-c1cccc(C(F)(F)F)c1Cl` [II-010], less than 50 nM.
`Cc1ccccc1Cn1cc(F)c(=O)nc1-c1cccc(C(F)(F)F)c1Cl` [II-011] gave an IC50 of less than 50 nM.
Still for that read-out and setting: as for `COc1cn(Cc2ccccc2C#N)c(-c2cccc(C(F)(F)F)c2Cl)nc1=O` [II-012], the figure is 100 to 500 nM; as for `COc1cn(Cc2cccc(C#N)c2)c(-c2cccc(C(F)(F)F)c2Cl)nc1=O` [II-013], 100 to 500 nM.
Still for that read-out and setting: under `COc1cn(Cc2ccc(C#N)cc2)c(-c2cccc(C(F)(F)F)c2Cl)nc1=O` [II-014] stands 1000 to 10000 nM; under `COc1cn(Cc2ccccc2CO)c(-c2cccc(C(F)(F)F)c2Cl)nc1=O` [II-015], less than 50 nM; under `COc1cn(Cc2ccc(C)cc2)c(-c2cccc(C(F)(F)F)c2Cl)nc1=O` [II-016], 500 to 1000 nM.
The same measure, in the same setting: under `COc1cn(Cc2cccc(C)c2)c(-c2cccc(C(F)(F)F)c2Cl)nc1=O` [II-017] stands 100 to 500 nM.
In turn, `COc1cn(Cc2ccccn2)c(-c2cccc(C(F)(F)F)c2Cl)nc1=O` [II-018] came in with an IC50 of 100 to 500 nM.
On the same count and under the same terms, under `COc1cn(Cc2cccc(CO)c2)c(-c2cccc(C(F)(F)F)c2Cl)nc1=O` [II-019] stands 50 to 100 nM.
Still for that read-out and setting: under `COc1cn(Cc2ccncc2)c(-c2cccc(C(F)(F)F)c2Cl)nc1=O` [II-020] stands 1000 to 10000 nM.
On the same count and under the same terms, under `CC(C)Oc1cn(Cc2ccccc2)c(-c2cccc(C(F)(F)F)c2Cl)nc1=O` [II-021] stands 50 to 100 nM; under `N#CCOc1cn(Cc2ccccc2)c(-c2cccc(C(F)(F)F)c2Cl)nc1=O` [II-022], less than 50 nM.
The compound `O=c1nc(-c2cccc(C(F)(F)F)c2Cl)n(Cc2ccccc2)cc1OCc1ccccc1` [II-023] returned a half-inhibitory concentration (IC50) of less than 50 nM.
Same read-out and setting: as for `CCOc1cn(Cc2ccccc2)c(-c2cccc(C(F)(F)F)c2Cl)nc1=O` [II-024], the figure is 50 to 100 nM; as for `O=c1nc(-c2cccc(C(F)(F)F)c2Cl)n(Cc2ccccc2)cc1OCCO` [II-025], 50 to 100 nM.
The same measure, in the same setting: as for `COc1cn(Cc2cccnc2C)c(-c2cccc(C(F)(F)F)c2Cl)nc1=O` [II-026], the figure is 50 to 100 nM; as for `NCCOc1cn(Cc2ccccc2)c(-c2cccc(C(F)(F)F)c2Cl)nc1=O` [II-027], 500 to 1000 nM; as for `CN(C)CCOc1cn(Cc2ccccc2)c(-c2cccc(C(F)(F)F)c2Cl)nc1=O` [II-028], 500 to 1000 nM.
The same measure, in the same setting: under `CC1(COc2cn(Cc3ccccc3)c(-c3cccc(C(F)(F)F)c3Cl)nc2=O)COC1` [II-029] stands 100 to 500 nM.
`CC(=O)COc1cn(Cc2ccccc2)c(-c2cccc(C(F)(F)F)c2Cl)nc1=O` [II-034] displayed a half-maximal inhibitory concentration (IC50) of 50 to 100 nM.
For the compound `O=c1nc(-c2cccc(C(F)(F)F)c2Cl)n(Cc2ccccc2)cc1OC(F)F` [II-035], the IC50 is 100 to 500 nM.
Still for that read-out and setting: as for `O=c1nc(-c2cccc(C(F)(F)F)c2Cl)n(Cc2ccccc2)cc1C(F)(F)F` [II-036], the figure is 100 to 500 nM; as for `N#Cc1cn(Cc2ccccc2)c(-c2cccc(C(F)(F)F)c2Cl)nc1=O` [II-037], less than 50 nM.
Consider `NC(=O)c1cn(Cc2ccccc2)c(-c2cccc(C(F)(F)F)c2Cl)nc1=O` [II-038], for which the IC50 was 500 to 1000 nM.
Still for that read-out and setting: as for `COc1cn(C(C)c2ccccc2)c(-c2cccc(C(F)(F)F)c2Cl)nc1=O` (stereo not drawn) [II-039], the figure is 50 to 100 nM; as for `C#CCOc1cn(Cc2ccccc2)c(-c2cccc(C(F)(F)F)c2Cl)nc1=O` [II-040], less than 50 nM.
On the same count and under the same terms, under `CC(C#N)Oc1cn(Cc2ccccc2)c(-c2cccc(C(F)(F)F)c2Cl)nc1=O` (stereo not drawn) [II-041] stands less than 50 nM; under `CC(C)(C)OC(=O)Nc1cn(Cc2ccccc2)c(-c2cccc(C(F)(F)F)c2Cl)nc1=O` [II-042], 50 to 100 nM; under `N#CCNc1cn(Cc2ccccc2)c(-c2cccc(C(F)(F)F)c2Cl)nc1=O` [II-043], 50 to 100 nM.
Still for that read-out and setting: under `CNc1cn(Cc2ccccc2)c(-c2cccc(C(F)(F)F)c2Cl)nc1=O` [II-044] stands 100 to 500 nM; under `CS(=O)(=O)Nc1cn(Cc2ccccc2)c(-c2cccc(C(F)(F)F)c2Cl)nc1=O` [II-047], 100 to 500 nM; under `O=c1ccn(Cc2ccccc2)c(-c2cccc(C(F)(F)F)c2Cl)n1` [II-048], 100 to 500 nM.
